# Read-outs that look alike come from different tables or passages of the source.
# Key:
# [1] = molecular target: T1, CYP3A4 (Homo sapiens, UniProt P08684); experiment: CYP450 inhibition, fluorescent probes 7BQ and DBOMF: CYP3A4; assay type: in vitro ADME; conditions: for IC50 at 10 min: human
# T1 construct: purchased Life Technologies P2377; host or cells: Baculosomes
# Procedure: (§1) Methods and Procedure: The study was performed in agreement with previously described procedures to assure data integrity and adherence to GLP standards. Briefly, recombinant human CYP450 isoenzymes were used to metabolize pro-fluorescent probe substrates to fluorescent products. IC50 values determined from the effect of test compounds on the metabolism of these probe substrates were then used to determine inhibitory potency against CYP450 isoforms.
# The test system was based on a three-step procedure with a “mix and read” format, where PGP-432,TI reaction and reading were performed at 37° C. The assays described herein measure in vitro inhibitory effects (pIC50) of compounds on the human P450 isoforms (1A2, 2B6, 2C8, 2C9, 2C19, 2D6, 3A4) expressed in recombinant microsomes. Pro-fluorescent probe substrates were metabolized to fluorescent products by the enzymes. Fluorescence was measured in kinetic mode (1 read/minutes for 10 minutes), and the fluorescence rate was calculated.
# Inhibition of the fluorescent signal resulting from P450 activation indicated inhibitory activity and facilitated calculation of the compound pIC50. […] Concentration response curves (CRCs) of compounds were run on two different test occasions (n=2) by preparing serial dilutions from the dame compound stock solution.
# To prepare the compound plate, test compounds serial dilutions 1 to 3 were performed from a 10 mM stock solution in DMSO by Biomek FX to generate 10 point CRC with the highest concentrations in columns 3 and 13.
# 100% DMSO was placed in columns 1 and 2 and used for assay low controls. CYP inhibitor (10 mM miconazole solution in DMSO) was placed in columns 23 and 24 and served as an assay high controls. 1 μL copy plates were then stamped into V-bottom drug plates at a concentration that is 200 fold the final assay concentration. The copy plates were diluted prior to the experiment with assay buffer to reach 4 times the final assay concentration (2% w/v DMSO).
# A reference compound (e.g., miconazole) was included in each compound plate in row A, column 3 and 13. The reference compound was diluted and stamped together with test compounds. The final concentrations of the 10 point CRCs of test compounds in the assay plate were 5.00E-05; 1.67E-05; 5.56E-06; 1.85E-06; 6.17E-07; 2.06E-07; 6.86E-08; 2.29E-08; 7.62E-09 and 2.54E-09, respectively. […]
# Microsomes were added to the buffer prior to the substrate addition. […] For fluorescence measurement, 10 μL/well of the test compounds were transferred from the compound plate to the assay plate using Biomek FX and the appropriate protocol. […]
# 10 μL/well of the cofactor was then added to the assay plate using the Multidrop before placing the assay plate in the plate reader EnVision to measure fluorescence. […]
# [2] = molecular target: T2, CYP2C8 (Homo sapiens, UniProt P10632); experiment: CYP450 inhibition, CYP2C8 Baculosomes, Vivid DBOMF substrate; assay type: in vitro ADME
# T2 construct: purchased Life Technologies PV6138; host or cells: Baculosomes
# T2 sequence (P10632 1-490): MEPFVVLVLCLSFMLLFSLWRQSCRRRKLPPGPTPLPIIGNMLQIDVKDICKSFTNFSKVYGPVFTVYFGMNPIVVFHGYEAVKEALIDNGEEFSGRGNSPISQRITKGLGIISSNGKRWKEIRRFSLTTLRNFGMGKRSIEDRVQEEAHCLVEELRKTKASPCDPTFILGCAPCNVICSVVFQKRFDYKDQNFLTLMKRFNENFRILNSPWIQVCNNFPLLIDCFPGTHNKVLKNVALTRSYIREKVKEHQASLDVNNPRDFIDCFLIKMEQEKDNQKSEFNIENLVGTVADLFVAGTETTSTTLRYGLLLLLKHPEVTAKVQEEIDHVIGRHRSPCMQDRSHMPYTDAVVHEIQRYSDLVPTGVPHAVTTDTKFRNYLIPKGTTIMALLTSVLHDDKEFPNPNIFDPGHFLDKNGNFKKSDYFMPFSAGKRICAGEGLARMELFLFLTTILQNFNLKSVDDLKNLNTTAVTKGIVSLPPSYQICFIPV
# Procedure: as §1
# The test system was based on a three-step procedure with a “mix and read” format, where PGP-432,TI reaction and reading were performed at 37° C. […] Fluorescence was measured in kinetic mode (1 read/minutes for 10 minutes), and the fluorescence rate was calculated. […]
# Next, 10 μL/well from the compound plate was added and incubated for 10 minutes at 37° C. on a plate shaker, while a mixture of Vivid Substrate and Vivid NADP+ in Vivid CYP450 Reaction Buffer was prepared. The reaction was initiated by adding 10 μL/well of the Vivid Substrate and NADP+ mixture, before transferring the plate into the fluorescent plate reader (immediately, within 2 minutes), and fluorescence was monitored every minute for 10 minutes according to the specific protocol. Regarding data analysis, the inhibition effect is expressed as a percentage. […]
# T1 sequence (P08684 whole entry): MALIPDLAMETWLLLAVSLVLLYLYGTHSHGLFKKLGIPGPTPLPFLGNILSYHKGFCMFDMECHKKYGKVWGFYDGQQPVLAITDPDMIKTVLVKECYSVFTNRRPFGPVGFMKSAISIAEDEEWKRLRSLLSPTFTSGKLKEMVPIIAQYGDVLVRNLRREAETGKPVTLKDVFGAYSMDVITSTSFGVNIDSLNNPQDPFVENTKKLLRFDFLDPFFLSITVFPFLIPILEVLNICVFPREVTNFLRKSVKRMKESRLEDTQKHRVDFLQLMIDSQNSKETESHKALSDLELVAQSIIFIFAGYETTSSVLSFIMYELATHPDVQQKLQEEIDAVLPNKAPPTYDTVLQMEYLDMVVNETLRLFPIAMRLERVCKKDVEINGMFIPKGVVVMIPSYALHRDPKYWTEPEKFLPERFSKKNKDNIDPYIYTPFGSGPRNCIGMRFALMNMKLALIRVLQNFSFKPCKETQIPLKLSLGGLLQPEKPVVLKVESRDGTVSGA
Structure (SMILES),"IC50 ([1]; recombinant human CYP3A4, substrate 7BQ, read-out: CYP450 Inhibition (IC50), CYP3A4 (7BQ))","IC50 ([1]; recombinant human CYP3A4, substrate DBOMF, read-out: CYP450 Inhibition (IC50), CYP3A4 (DBOMF))",IC50 ([2]; recombinant human CYP2C8),"IC50 at 10 min ([1]; recombinant CYP3A4 Baculosomes, pH 8, probe Vivid DBOMF)","IC50 at 10 min ([1]; recombinant microsomes expressing CYP3A4, probe 7BQ)","IC50 at 10 min ([2]; human, recombinant CYP2C8 Baculosomes, pH 8, probe Vivid DBOMF)"
"Clc1ccc(C23CNC(CO2)C3)cc1Cl (stereo not drawn) [522A, 1-(3,4-dichlorophenyl)-2-oxa-5-azabicyclo[2.2.1]heptane]",> 50 µM,> 50 µM,> 50 µM,,,
"CNC(C)Cc1ccc2c(c1)OCO2 (stereo not drawn) [MDMA, reference compound]",,,,50 µM,50 µM,50 µM

# — patent US12595269B2, “Morpholine-like monoamine releasers” (Solvonis Therapeutics Ireland Holdings Limited, priority 2022, dated 2026)
